The source of these data is ChEMBL document CHEMBL1201862, “PubChem BioAssay data set” (2004).

Structures are written as SMILES.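 48-hour exposure; five concentrations; linearly interpolated endpoints. At the GI50, growth is halved.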 Activity calls are given as the source filed them. No stated cut-off is given here; in the data, active = GI50 up to about 1.1 µM and inactive = higher.

Assay in all cases: inhibition of tumour cell growth, NCI panel, 48 h
Test [1] deals with NCI-H226.
Test [2] relates to SN12C.
Test [3] deals with SK-MEL-2.
Test [4] has as its system U-251.
For test [5], the system named is NCI/ADR-RES.
Test [6] concerns K562.
Test [7] concerns SNB-75.
The subject of test [8] is IGROV-1.
For test [9], the system named is A498.
For test [10], the system named is HOP-92.
The subject of test [11] is MOLT-4.
For test [12], the system named is SR.
Test [13] concerns SF-295.
Test [14] deals with UO-31.
The test system of test [15] is SK-OV-3.
The test system of test [16] is PC-3.
The test system of test [17] is HOP-62.
In test [18] the test system is HCT-116.

`COC1(OC)C[C@H](C)[C@@]23O[C@]24C2=CC(=O)C=CC2=N[C@H]3C#C/C=C\C#C[C@]14O`: the GI50 in [1] is 0.7 µM (active); in test [2], 0.973 µM (active); in [3] it was 1.66 µM (inactive); in [4], 0.805 µM (active); in [5], 1.59 µM (inactive); in test [6], 0.359 µM (active). Moreover, the GI50 was 0.133 µM (active) in [7]; 0.724 µM (active) in test [8]; 0.91 µM (active) in test [9]; 0.532 µM (active) in test [10]; 0.0187 µM (active) in test [11]; 0.032 µM (active) in [12]. In addition, the GI50 is 1.64 µM (inactive) in test [13]; 0.355 µM (active) in test [14]; 1.36 µM (inactive) in [15]; 0.753 µM (active) in test [16]; 0.787 µM (active) in test [17]; 0.364 µM (active) in [18].

On to `O=C1/C(=C/c2ccccc2)CCc2ccc([N+](=O)[O-])cc21`, for which the GI50 in test [1] was > 100 µM (inactive); in [2], > 75.9 µM (inactive); in test [3], 13.6 µM (inactive); in [4] it was 27.1 µM (inactive); in [5] it was 43.6 µM (inactive); in [6] it was 15.9 µM (inactive). In addition, the GI50 in test [7] is 37.3 µM (inactive); in [8] it was 72.9 µM (inactive); in test [9], > 78.7 µM (inactive); in [10], 81.5 µM (inactive); in [11], 10.8 µM (inactive); in test [12], 4.26 µM (inactive). Moreover, the GI50 in [13] was 33 µM (inactive); in [14], > 82.8 µM (inactive); in [15], 41 µM (inactive); in test [16], 44.2 µM (inactive); in test [17], > 71.3 µM (inactive); in [18], 24.4 µM (inactive).

For the compound `COC(=O)C1Cc2cc3c(cc2C1)CCC3`, the GI50 in [1], in test [2], in test [3], in test [4], in [5] and in test [6] was > 100 µM (inactive) each time. The GI50 in test [7] is > 100 µM (inactive); in [8], > 100 µM (inactive); in [9], > 100 µM (inactive); in [10] it was 34 µM (inactive); in [11], > 100 µM (inactive); in test [12], > 100 µM (inactive). For the same compound, the GI50 in test [13], in test [14], in test [15], in test [16], in test [17] and in test [18] was > 100 µM (inactive) throughout.

For the compound `COc1cc2cc(C(=O)N3CC(CCl)c4c3cc(NCCN)c3ccccc43)[nH]c2c(OC)c1OC` (stereo not drawn), the GI50 in test [1] is 0.0117 µM (active); in test [2] it was < 0.01 µM (active); in test [3], < 0.01 µM (active); in [4] it was < 0.01 µM (active); in test [5], < 0.01 µM (active); in [6], < 0.01 µM (active). Further, the GI50 in test [7] was 0.0102 µM (active); in test [8], < 0.01 µM (active); in test [9], < 0.01 µM (active); in test [10] it was < 0.01 µM (active); in test [11], < 0.01 µM (active); in test [12], < 0.01 µM (active). In addition, the GI50 was < 0.01 µM (active) in test [13]; < 0.01 µM (active) in test [14]; < 0.0189 µM (active) in test [15]; < 0.01 µM (active) in [16]; < 0.01 µM (active) in test [17]; < 0.01 µM (active) in [18].

Turning to `COc1ccc(CCN2C(=O)C=CC2=O)cc1OC`, the GI50 in test [1] was 5.62 µM (inactive); in test [2], 17.5 µM (inactive); in [3], 5.2 µM (inactive); in test [4], 19.5 µM (inactive); in [5], 25.4 µM (inactive); in test [6], 2.59 µM (inactive). The GI50 was 20.5 µM (inactive) in test [7]; 18 µM (inactive) in [8]; 16.7 µM (inactive) in [9]; 15.4 µM (inactive) in [10]; 2.43 µM (inactive) in test [11]; 2.25 µM (inactive) in test [12]. The GI50 is 17.7 µM (inactive) in test [13]; 1.63 µM (inactive) in [14]; 18.8 µM (inactive) in test [15]; 18.7 µM (inactive) in [16]; 22.5 µM (inactive) in [17]; 3.53 µM (inactive) in [18].

For the compound `C[C@H]1CC(=O)C[C@@H]2CC[C@@H]3[C@H](CC[C@]4(C)C(OC(=O)c5cccc6c(=O)c7ccccc7[nH]c56)CC[C@@H]34)[C@]21C` (stereo partly drawn), the GI50 was 28.2 µM (inactive) in test [1]; 46 µM (inactive) in test [2]; 28.6 µM (inactive) in [3]; 33.1 µM (inactive) in [4]; 20.4 µM (inactive) in [5]; 23.6 µM (inactive) in test [6]. Also, the GI50 in test [7] was 31.1 µM (inactive); in test [8], 38.5 µM (inactive); in test [9], 30.1 µM (inactive); in test [10], 16 µM (inactive); in [11], 5.28 µM (inactive); in test [12], 4.8 µM (inactive). The GI50 in [13] was 38.5 µM (inactive); in test [14] it was 24.2 µM (inactive); in [15] it was 16.3 µM (inactive); in test [16], 14.8 µM (inactive); in [17], 36.6 µM (inactive); in test [18], 33.3 µM (inactive).

Turning to `CC1=CC(=O)c2cccc(NC3=NCCO3)c21`, the GI50 in test [1] was 29 µM (inactive); in test [2], 52.7 µM (inactive); in test [3] it was 97.1 µM (inactive); in [4], 64 µM (inactive); in [5], 29.5 µM (inactive); in test [6] it was 34.5 µM (inactive). Also, the GI50 in [7] was 52.6 µM (inactive); in test [8], 36.1 µM (inactive); in [9], 38 µM (inactive); in test [10], 36.1 µM (inactive); in test [11] it was 32.7 µM (inactive); in [12], 38.2 µM (inactive). Besides, the GI50 in test [13] was > 100 µM (inactive); in [14], 76.6 µM (inactive); in [15], > 100 µM (inactive); in test [16], 46.6 µM (inactive); in test [17] it was > 100 µM (inactive); in test [18] it was 33.6 µM (inactive).

`CC(C)(CO[C@H]1C[C@H]2CC[C@@]1(C)C2(C)C)[N+](=O)[O-]`: the GI50 was 16.1 µM (inactive) in [1]; 27.4 µM (inactive) in test [2]; 16.6 µM (inactive) in [3]; 16.7 µM (inactive) in [4]; 27.9 µM (inactive) in test [5]; 13.9 µM (inactive) in test [6]. Further, the GI50 in [7] was 19.4 µM (inactive); in [8] it was 30.8 µM (inactive); in test [9], 22.7 µM (inactive); in test [10], 14.6 µM (inactive); in test [11], 18.1 µM (inactive); in [12] it was 5.25 µM (inactive). The GI50 in test [13] was 18.6 µM (inactive); in test [14], 12.5 µM (inactive); in test [15] it was 29.1 µM (inactive); in [16], 20.9 µM (inactive); in test [17], 19.5 µM (inactive); in test [18] it was 15.3 µM (inactive).

Regarding `CC1CC(C(=O)OC2OC(COC3OC(CO)C(OC4OC(C)C(O)C(O)C4O)C(O)C3O)C(O)C(O)C2O)C2CCC3(C)C(=CCC4(C)C3CCC3C(C)(CO)C(O)C(O)CC34C)C2C1C` (stereo not drawn), the GI50 was 32.5 µM (inactive) in [1]; 20.7 µM (inactive) in test [2]; 18.9 µM (inactive) in test [3]; 17.5 µM (inactive) in [4]; > 100 µM (inactive) in test [5]; 34.3 µM (inactive) in test [6]. Besides, the GI50 in [7] was 16.9 µM (inactive); in test [8], 16.9 µM (inactive); in test [9], > 10 µM (inactive); in [10], 17.4 µM (inactive); in test [11], 19.6 µM (inactive); in [12], 17.9 µM (inactive). In addition, the GI50 is 28.8 µM (inactive) in test [13]; > 100 µM (inactive) in test [14]; 49.1 µM (inactive) in test [15]; 29.5 µM (inactive) in test [16]; 17.7 µM (inactive) in test [17]; 18.2 µM (inactive) in [18].

As to `Clc1ccccc1C(Nc1ncccn1)Nc1ncccn1`, the GI50 in test [1], in test [2], in [3], in test [4], in test [5] and in test [6] was > 100 µM (inactive) each time. In addition, the GI50 in test [7] was 47 µM (inactive); in test [8] it was > 100 µM (inactive); in test [9], > 100 µM (inactive); in test [10], > 100 µM (inactive); in test [11] it was > 100 µM (inactive); in test [12], 8.15 µM (inactive). Besides, the GI50 in [13], in [14], in test [15], in test [16], in test [17] and in [18] was > 100 µM (inactive) throughout.

In the case of `CSc1nc2cc(S(=O)(=O)N3CCCCC3)ccc2s1`, the GI50 in test [1], in test [2], in test [3], in [4], in [5] and in [6] was > 100 µM (inactive) in each case. The GI50 in test [7] is 61.4 µM (inactive); in test [8], > 100 µM (inactive); in [9], > 100 µM (inactive); in test [10], > 100 µM (inactive); in test [11], > 100 µM (inactive); in test [12], > 100 µM (inactive). The GI50 in test [13] was 28 µM (inactive); in test [14] it was > 100 µM (inactive); in test [15], > 100 µM (inactive); in test [16] it was > 100 µM (inactive); in test [17], 57 µM (inactive); in test [18] it was > 100 µM (inactive).
